Our source for the EC50 values is PubChem BioAssay AID2252 (Southern Research Specialized Biocontainment Screening …, 2010).

Structures are written as SMILES. “And” between values parts separate entries of the source, which are not always exact repeats. Equal values may be shown once.

For the experiment, the system named is THP-1 viability, CellTiter-Glo luminescence, 72 h. Put plainly: PubChem AID 2252.
Consider `NC1=NC[C@H](Cc2ccccc2)N1CCCCC1CCCCC1`, for which the EC50 is 3.5 µM. The result for `Nn1cnnc1N/N=C\c1ccc(-c2ccccc2[N+](=O)[O-])o1` reads 41.3 µM. In the case of `Nc1nonc1C(=O)N/N=C/c1cc(Br)ccc1O` it was 4.18 µM.

Turning to `Cc1ccc(C(=O)NCCN2C3=NC[C@@H](Cc4ccccc4)N3C[C@H]2Cc2ccc(O)cc2)cc1Br`, the EC50 was 8.09 µM. `O=S1(=O)CC=C(CSc2nc3ccccc3[nH]2)C1`: the EC50 is less than 0.1 µM. Regarding `Cc1ccc(-c2c[n+](Cc3ccc(Cl)c(Cl)c3)c3n2CCC3)cc1`, the EC50 was 4.37 µM. The result for `CCOC(=O)c1c(N)sc(C(=O)Nc2ccc3c(c2)OCO3)c1C` reads 42.7 µM.

Take `O=c1cc(-c2ccccc2)cc(-c2ccccc2)n1O`: the EC50 is 14 µM. The result for `Cc1ccc(-n2c(-c3ccc(Br)cc3)c[n+]3c2CCc2ccc4cccnc4c2-3)cc1` reads 0.76 µM; that for `CCCOc1ccc(CSC2=NCCN2)cc1[N+](=O)[O-]`, 20.8 µM.

For the molecule `Cc1cc(C2N=C(N)Nc3nc4ccccc4n32)c(C)n1-c1ccccc1Cl` (stereo unspecified), the EC50 is 11.4 µM. In the case of `COc1cc([N+](=O)[O-])cc(/C=N/NC(=O)c2cccnc2)c1O` it was 29.7 µM; in that of `O=C(N/N=C/c1cc(Br)ccc1O)c1ccncc1`, 5.06 µM; in that of `COc1ccc(Nc2c3c(nc4ccccc24)CCC3)cc1`, 3.42 µM.

Regarding `CCCCCCCCCCOC(=O)Cn1c(COc2cccc(C)c2)[n+](C)c2ccccc21`, the EC50 is 2.43 µM. In the case of `O=S(=O)(Nc1c(S(=O)(=O)c2ccccc2)c2nc3ccccc3nc2n1C1CCCCC1)c1ccccc1` it was 12.3 µM; in that of `Cc1cccc(Nc2c3c(nc4ccccc24)CCC3)c1`, 6.27 µM; in that of `COc1ccc(/C=N/NC(=O)c2ccc3c(c2)OCO3)cc1`, 48.7 µM. In the case of `Oc1ccc(/C=N/Nc2nccnc2Cl)c(O)c1` it was 1.63 µM; in that of `CC1(C)N=C(N)NC(Nc2ccc(Br)cc2)=N1`, 7.06 µM; in that of `OC1(c2ccc(Cl)cc2)CCN(Cc2c[nH]c3ccccc23)CC1`, 9.75 µM. In the case of `CCCN(CCC)CCNC(=O)C1CCN(Cc2nc(-c3ccc(Cl)cc3)oc2C)CC1` it was 24.8 µM; in that of `Cc1nc(N=Nc2ccc(O)cc2)n[nH]1`, 28.2 µM; in that of `CN(C)c1ccc(O)c2c1CC1CC3C(N(C)C)C(=O)C(C(N)=O)=C(O)[C@@]3(O)C(=O)C1=C2O` (stereo partly specified), 33.7 µM. With `CC1CCN(c2nc3ccc(C(=O)NCCCN4CCCCC4)cc3s2)CC1`, the EC50 is 30.7 µM. With `CO[C@H]1C=CO[C@@]2(C)Oc3c(C)c(O)c4c(O)c(c5c(c4c3C2=O)NC2(CCN(CC(C)C)CC2)N=5)=NC(=O)C(C)=CC=C[C@H](C)[C@H](O)[C@@H](C)[C@@H](O)[C@@H](C)[C@H](OC(C)=O)[C@@H]1C`, the EC50 was 26 µM.

On to `Cn1c(CCN2CCN(c3ccccn3)CC2)nc2cc(NC(=O)COc3ccccc3)ccc21`, for which the EC50 is 22.1 µM. In the case of `CCOc1ccc(Nc2c3ccccc3nc3ccccc23)cc1` it was 2.49 µM; in that of `COc1cc(/C=N/N=C(N)N)ccc1OCc1ccc(Cl)cc1`, 7.26 µM. The result for `COC(=O)C1=C(C(=O)OC)SC(=C2C(=S)C(C)(C)N(C(=O)C3CC3)c3ccccc32)S1` reads 30.9 µM; that for `Cc1ccc(C)c(N/C(N)=N/c2nc(C)cc(C)n2)c1`, 27 µM; that for `CC1CCCC(NC(=O)COC(=O)Cc2c[nH]c3ccccc23)C1C` (stereo unspecified), less than 0.1 µM. In the case of `CCCCCCC[N+](CC)(CC)CCCCc1ccc(Cl)cc1` it was 3.22 µM. With `CN(C)CC/C=C1\c2ccccc2Sc2ccc(Cl)cc21`, the concentration giving a half-maximal response (EC50) was 17 µM. In the case of `O=C(/C=C/c1cccs1)NC(=S)NNC(=O)c1ccccc1O` it was 2.79 µM; in that of `Oc1cccc(Nc2nc(NCC3CCCO3)c3ccccc3n2)c1` (stereo unspecified), 1.36 µM; in that of `O=C1C=C(c2ccc(Cl)cc2)C(=O)N1Nc1ccccc1`, 5.96 µM.

As to `O=C(NNc1nc2ccc(F)cc2s1)c1cccc(F)c1`, the half-maximal effective concentration (EC50) was 8.07 µM. On to `Cc1nc2ccccn2c1C(=O)N/N=C/c1ccc([N+](=O)[O-])o1`, for which the EC50 is 13.9 µM. The result for `OCCN1CCN(Cc2cc(Cl)c3cccnc3c2O)CC1` reads 7.5 µM. In the case of `CCC(/C=C1\Sc2ccc(OC)cc2N1CCO)=C\c1sc2ccc(OC)cc2[n+]1CCO` it was 8.14 µM; in that of `O=C(N/N=C/c1cc([N+](=O)[O-])ccc1O)C(O)(c1ccccc1)c1ccccc1`, 11.8 µM. Consider `CSc1nc2cc(Oc3cccc(Cl)c3Cl)c(Cl)cc2[nH]1`, for which the EC50 was 43.9 µM. The result for `S=C1SCN(Cc2cccnc2)CN1Cc1cccnc1` reads 3.92 µM. The result for `CCCN1CCC(NCc2cn(C)nc2-c2ccc(Oc3ccccc3)cc2)CC1` reads 9.72 µM; that for `CC1CCC(C(C)C)C(OC(=O)Cn2c(-c3ccc(Cl)cc3)[n+](C)c3ccccc32)C1` (stereo unspecified), 2.22 µM. The result for `Cc1cccn2c(=O)c(C=O)c(Cl)nc12` reads 26.8 µM; that for `Cc1ccccc1C(=O)Nc1cccc(C(=O)N/N=C/c2cc(Cl)cc([N+](=O)[O-])c2O)c1`, 12.4 µM; that for `CN(C)CCCN1c2ccccc2Sc2ccc(C(F)(F)F)cc21`, 14.6 µM. In the case of `Cc1cc2nc(C3CCN(CC4COc5ccccc5O4)CC3)[nH]c2cc1C` (stereo unspecified), the EC50 is 26.8 µM. As to `O=C(N/N=C\C=C\c1ccc([N+](=O)[O-])o1)c1cccs1`, the EC50 is 34.8 µM.

Consider `Cc1ccc2nc(N(CCCN(C)C)C(=O)c3sc4ccccc4c3Cl)sc2c1`, for which the concentration giving a half-maximal response (EC50) was 28.1 µM. In the case of `CCN1/C(=C/c2cc[n+](C)cc2)C=Cc2cc(C)ccc21` it was 6.78 µM; in that of `COc1cc(CNCCc2c[nH]c3ccccc23)ccc1OCc1ccccc1F`, 13.1 µM. The result for `O=C(Cc1ccccc1)N/N=C/c1cc(Br)cc(Cl)c1O` reads 3.7 µM; that for `CCN1c2ccccc2NC2N=C(OC)C(c3ccccc3)C21` (stereo unspecified), 16.1 µM; that for `Cc1cc(N/N=C/c2ccc(F)cc2)nc(NCc2ccccc2)n1`, 22.5 µM.

As for `Nc1nc2ccccc2n1Cc1ccc(Cl)c(Cl)c1`, the EC50 is 31.6 µM. The result for `O=C(/C=C/c1ccccc1)NC(=S)NNC(=O)c1cnccn1` reads 4.6 µM; that for `COc1cccc(Nc2nc(NCC3CCCO3)c3ccccc3n2)c1` (stereo unspecified), 2.27 µM; that for `CC(C)(C)Nc1nc(-c2ccccn2)nc2ccccc12`, 3.45 µM. In the case of `O=C(CCN1CCN(c2ccccc2F)CC1)c1ccc(Br)cc1` it was 17 µM; in that of `CNCc1c(OCc2ccccc2F)ccc2ccccc12`, 15.2 µM; in that of `COc1cc(CNCCO)cc(Cl)c1OCc1ccc(Cl)cc1Cl`, 10.8 µM. In the case of `Oc1ccc(C=Nc2ccc3ncccc3c2)c(O)c1`, the EC50 is 16.5 µM. The result for `c1ccc2c(c1)CSc1sccc1C2=C1CCNCC1` reads 17.7 µM; that for `OCCN1CCN(CCCN2c3ccccc3Sc3ccc(Cl)cc32)CC1`, 12.5 µM. Take `CC(NCC(O)COc1ccc2ccccc2c1)c1ccccc1` (stereo unspecified): the EC50 was 6.71 µM.

Consider `COc1ccc(NC(=O)CN(C)S(=O)(=O)c2ccc(Cl)cc2)cc1Cl`, for which the EC50 was less than 0.1 µM. In the case of `CN(C)CCNC(=O)/C(=C/c1ccc(-c2ccc(Cl)cc2)o1)NC(=O)c1ccccc1` it was 11.3 µM; in that of `O=C(N/N=C/c1cc([N+](=O)[O-])ccc1O)c1cccc2cc[nH]c12`, 1.91 µM. In the case of `O=c1[nH]c(=S)ccn1C1OC(CO)C(O)C1O` (stereo unspecified), the EC50 is 16.3 µM. In the case of `CC1(C)CC(N2CCN(c3ccccc3)CC2)=CC(=[N+]2CCCC2)C1` it was 8.86 µM.

On to `CCOc1ccccc1-c1cc(-c2ccccc2)nc2c1c(=O)n(C)c(=O)n2C`, for which the EC50 is less than 0.1 µM.

Take `Cc1cc(C)c(NC(=O)C[N+](C)(C)CC(O)COc2cccc3ccccc23)c(C)c1` (stereo unspecified): the EC50 was 12.8 µM. The result for `O=C(N/N=C/c1ccc([N+](=O)[O-])o1)c1ccc(O)cc1` reads 13.1 µM; that for `CN(C)CCCN1c2ccccc2Sc2ccc(Cl)cc21`, 5.64 µM and 12.4 µM. In the case of `COc1ccc(C(=O)NC(=S)NNC(=O)CCc2ccccc2)cc1` it was 6.09 µM.

Consider `CCCCCOc1ccc(C)cc1CN(CCCl)CCCl`, for which the EC50 is 28.9 µM. Take `Oc1ccc(C[C@@H]2CNCCN2CCCCC2CCCCC2)cc1`: the EC50 was 8.53 µM. For the molecule `COc1ccc(Nc2c3c(nc4ccc(C)cc24)CCC3)cc1`, the EC50 is 19 µM. In the case of `CS(=O)(=O)c1ccc2nc(NC(=O)c3ccc(Cl)nc3)sc2c1` it was 46.2 µM; in that of `CCOC(=O)c1cc(-c2ccc(F)cc2)n(CCC(=O)NC2CCN(Cc3ccccc3)CC2)c1C`, 18.9 µM. In the case of `Cc1ccc(C(c2cc(Cl)c3cccnc3c2O)N2CCN(C)CC2)cc1` (stereo unspecified) it was 4.95 µM. The result for `NC(N)=N/N=C/c1ccc(OCc2ccc(Cl)cc2Cl)cc1` reads 5.86 µM; that for `COc1ccc(N2CC(C(=O)N/N=C/c3cc([N+](=O)[O-])ccc3O)CC2=O)cc1` (stereo unspecified), 17.7 µM; that for `CNCCCC1Sc2ccccc2Oc2ccccc21` (stereo unspecified), 23.6 µM. On to `COc1cccc(/C=N/NC(=O)CNC(=O)CCc2ccccc2)c1O`, for which the EC50 is 21.7 µM. In the case of `COc1cccc(/C=N/NC(=O)CSCC(=O)Nc2ccccc2)c1O` it was 5.26 µM. In the case of `CCOC(=O)c1c(-c2ccc(-c3ccccc3)cc2)csc1NC(=O)CNCCN(C)C`, the EC50 was 7.38 µM.

Turning to `C/C(=N\NC(=O)c1ccccc1O)c1cccs1`, the EC50 is 22.7 µM. The result for `O=C(N/N=C/c1cc(Cl)ccc1O)c1cccnc1` reads 2.87 µM; that for `Oc1ccc(COCc2ccccc2)c2cccnc12`, 1.24 µM. The result for `CC(NCC(O)COCCC12CC3CC(CC(C3)C1)C2)c1ccccc1` (stereo unspecified) reads 9.86 µM. The result for `CCCCc1ccc(N/C(N)=N/c2nc(C)cc(C)n2)cc1` reads 6.47 µM. Turning to `Cc1cc2ncn(/N=C/c3ccc([N+](=O)[O-])o3)c2cc1C`, the EC50 is 49.3 µM. In the case of `Cc1ccc(C(=O)N/C(=C\c2ccc(-c3ccc(Cl)cc3)o2)C(=O)NCCCN(C)C)cc1` it was 5.31 µM; in that of `OC(CNCCc1ccc(Cl)cc1)COc1cc(Cl)ccc1Cl` (stereo unspecified), 29.8 µM; in that of `O=C(Nc1nnc(C2COc3ccccc3O2)o1)c1ccc(F)cc1` (stereo unspecified), 16.8 µM. The result for `O=C(N/N=C/c1ccccc1O)c1ccncc1` reads 15.2 µM; that for `Cc1ccc2nc(NCc3ccccc3)[nH]c2c1`, 3.85 µM.

By EC50 is commonly meant the concentration giving half of the maximal effect.
